The values below come from patent US20240158446A1, “CYCLIC COMPOUND HAVING SELECTIVE INHIBITORY ACTION ON KRAS OVER HRAS AND NRAS” (CHUGAI SEIYAKU KABUSHIKI KAISHA, priority 2021, published 2024).

Where two headings read alike, the source gives them in different places. Where a SMILES comes first, the peptide text is derived from it. Bridges are numbered along the chain shown (N, C = ends). [ ]: non-standard residue; d: D form. The star is where a group is joined. hPhe(3,5-F2-4-CF3) = N[C@@H](CCc1cc(F)c(C(F)(F)F)c(F)c1)C(=O)O; hPhe(3-Cl-4-CF3) = N[C@@H](CCc1ccc(C(F)(F)F)c(Cl)c1)C(=O)O; NPrPhe(4-CF3) = CCCN[C@@H](Cc1ccc(C(F)(F)F)cc1)C(=O)O; Morpholine(3S-CO) = O=C(O)[C@@H]1COCCN1; NMeGly(cPent) = CN[C@H](C(=O)O)C1CCCC1; NMeD = CN[C@@H](CC(=O)O)C(=O)O; NMeL = CN[C@@H](CC(C)C)C(=O)O; αMeV = CC(C)[C@](C)(N)C(=O)O; Morpholide = C1CN(*)CCO1; NMeA = CN[C@@H](C)C(=O)O; Ac5c = NC1(C(=O)O)CCCC1; Aze = O=C(O)[C@@H]1CCN1; X24 = CC1(C)CCN(*)C1; Sar = CNCC(=O)O

In experiment [1] the target is GDP-bound KRAS wild-type protein (Homo sapiens, UniProt P01116). Nature of the experiment: Binding to KRAS by surface plasmon resonance (SPR), Single Cycle Kinetics. The note with it: GDP-bound KRAS wild-type protein, read-out: KRAS KD.
Experiment [2] has as its target GDP-bound NRAS wild-type protein (Homo sapiens, UniProt P01111). Nature of the experiment: Binding to NRAS by surface plasmon resonance (SPR), Single Cycle Kinetics. The note with it: SPR, GDP-bound NRAS wild-type protein vs GDP-bound KRAS wild-type protein. (In general: SPR reads the build-up and loss of mass on a sensor chip optically.)
In experiment [3] the target is GDP-bound HRAS wild-type protein (Homo sapiens, UniProt P01112). Description: Binding to HRAS by surface plasmon resonance (SPR), Single Cycle Kinetics. The note with it: SPR, GDP-bound HRAS wild-type protein vs GDP-bound KRAS wild-type protein.
The mark [4] stands for this setting: SPR Single Cycle Kinetics, 1:1 binding model.

Usually Kd stands for the equilibrium constant for the complex coming apart.

Sequence of GDP-bound KRAS wild-type protein (P01116 whole entry): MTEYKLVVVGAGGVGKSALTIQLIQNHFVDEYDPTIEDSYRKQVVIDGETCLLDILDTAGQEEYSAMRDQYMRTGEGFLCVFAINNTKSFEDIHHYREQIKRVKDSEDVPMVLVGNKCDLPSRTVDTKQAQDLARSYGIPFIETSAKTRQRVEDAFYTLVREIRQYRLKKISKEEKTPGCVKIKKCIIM
Sequence of GDP-bound HRAS wild-type protein (P01112 whole entry): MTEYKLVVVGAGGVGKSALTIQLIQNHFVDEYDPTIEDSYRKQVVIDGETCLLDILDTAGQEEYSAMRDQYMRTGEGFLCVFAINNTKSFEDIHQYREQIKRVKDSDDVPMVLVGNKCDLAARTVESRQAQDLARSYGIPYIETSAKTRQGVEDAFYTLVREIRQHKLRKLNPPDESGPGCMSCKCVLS
Sequence of GDP-bound NRAS wild-type protein (P01111 whole entry): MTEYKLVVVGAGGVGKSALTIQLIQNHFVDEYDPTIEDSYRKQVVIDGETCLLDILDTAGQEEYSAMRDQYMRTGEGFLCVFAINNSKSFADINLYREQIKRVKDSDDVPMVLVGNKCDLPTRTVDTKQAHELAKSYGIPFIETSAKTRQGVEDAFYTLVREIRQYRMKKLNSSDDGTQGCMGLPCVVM

`CCCN1C(=O)[C@@H]2CCN2C(=O)[C@H](C)N(C)C(=O)[C@H]([C@@H](C)CC)NC(=O)[C@H](CC(C)C)N(C)C(=O)C[C@@H](C(=O)N2CCC(C)(C)C2)N(C)C(=O)[C@H](C2CCCC2)N(C)C(=O)C2(CCCC2)NC(=O)[C@@H]2CCCN2C(=O)[C@H](CCc2ccc(C(F)(F)F)c(Cl)c2)NC(=O)CN(C)C(=O)[C@@H]1Cc1ccc(C(F)(F)F)cc1` [PP0186] ([NMeL]I[NMeA][Aze][NPrPhe(4-CF3)][Sar][hPhe(3-Cl-4-CF3)]P[Ac5c][NMeGly(cPent)][NMeD]-X24; lactam N-11): the Kd in experiment [1] (setting [4]) is 1.7 nM. For the same molecule, the “NRAS/KRAS (ratio of KD value for NRAS to KD value for KRAS)” value in experiment [2] was “C (A compound having a KD ratio of 0.1 or more and less than 3 is denoted as C)”. In experiment [3], the “HRAS/KRAS (ratio of KD value for HRAS to KD value for KRAS)” value is “B (a compound having 3 or more and less than 10 is denoted as B)”.

In the case of `CCO[C@@H]1C[C@H]2C(=O)NC3(CCC3)C(=O)N(C)[C@@H](C3CCCC3)C(=O)N(CC)[C@H](C(=O)N3CCOCC3)CC(=O)N(C)[C@@H](CO)C(=O)N[C@@H]([C@@H](C)CC)C(=O)N(C)CC(=O)N(C)[C@H]3CCCCCN(C3=O)[C@@H](Cc3ccc(C(F)(F)F)cc3)C(=O)N(C)CC(=O)N[C@@H](CCc3cc(F)c(C(F)(F)F)c(F)c3)C(=O)N2C1` [PP0945], in experiment [1] (SPR, Single Cycle Kinetics), the Kd came to 3.7 nM. In addition, the “NRAS/KRAS (ratio of KD value for NRAS to KD value for KRAS)” value in experiment [2] was “B (a compound having 3 or more and less than 10 is denoted as B)”. Moreover, the “HRAS/KRAS (ratio of KD value for HRAS to KD value for KRAS)” value in experiment [3] was “A (a compound having 10 or more and less than 20 is denoted as A)”.

As to `CCO[C@@H]1C[C@H]2C(=O)NC3(CCC3)C(=O)N(C)[C@@H](C3CCCC3)C(=O)N(C)[C@H](C(=O)N(C)C)CC(=O)N(C)[C@@H](CC(C)(C)C)C(=O)N[C@@H]([C@@H](C)CC)C(=O)N(C)CC(=O)N(C)[C@H]3C/C=C\CCN(C3=O)[C@@H](Cc3ccc(C(F)(F)F)cc3)C(=O)N(C)CC(=O)N[C@@H](CCc3cc(F)c(C(F)(F)F)c(F)c3)C(=O)N2C1` [PP1117, (2S,8S,12R,14S,20S,23S,27S,30S,36S,38Z)-20-cyclopentyl-8-[2-[3,5-difluoro-4-(trifluoromethyl)phenyl]ethyl]-27-(2,2-dimethylpropyl)-12-ethoxy-N,N,4,19,22,26,32,35-octamethyl-30-[(1S)-1-methylpropyl]-3,6,9,15,18,21,25,28,31,34,42-undecaoxo-2-[[4-(trifluoromethyl)phenyl]methyl]spiro[1,4,7,10,16,19,22,26,29,32,35-undecazatricyclo[34.5.1.0^10,14]dotetracont-38-ene-17,1′-cyclobutane]-23-carboxamide], the Kd in experiment [1] (SPR, Single Cycle Kinetics) was 0.07 nM. Moreover, the “NRAS/KRAS (ratio of KD value for NRAS to KD value for KRAS)” value in experiment [2] is “A (a compound having 10 or more and less than 20 is denoted as A)”. Also, in experiment [3], the “HRAS/KRAS (ratio of KD value for HRAS to KD value for KRAS)” value was “A (a compound having 10 or more and less than 20 is denoted as A)”.

With `CCO[C@@H]1C[C@H]2C(=O)NC3(CC(C)(C)C3)C(=O)N(C)[C@@H](C(CC)CC)C(=O)N(C)[C@H](C(=O)N(C)C)CC(=O)N(C)[C@@H](CC)C(=O)N[C@@H]([C@@H](C)CC)C(=O)N(C)CC(=O)N(C)[C@H]3C/C=C\CCN(C3=O)[C@@H](Cc3ccc(C)cc3)C(=O)N(C)CC(=O)N[C@@H](CCc3ccc(C(F)(F)F)c(Cl)c3)C(=O)N2C1` [PP2154], in experiment [1] (SPR, Single Cycle Kinetics), the Kd stood at 0.36 nM. The “NRAS/KRAS (ratio of KD value for NRAS to KD value for KRAS)” value in experiment [2] was “A (a compound having 10 or more and less than 20 is denoted as A)”. Also, the “HRAS/KRAS (ratio of KD value for HRAS to KD value for KRAS)” value in experiment [3] is “A (a compound having 10 or more and less than 20 is denoted as A)”.

Take `CCO[C@@H]1C[C@H]2C(=O)NC3(CCC3)C(=O)N(C)[C@@H](C(CC)CC)C(=O)N(C)[C@H](C(=O)N3CCCC3)CC(=O)N(C)[C@H]3CCCCC/C=C/c4ccc(cc4)C[C@@H](C(=O)N(C)CC(=O)N[C@@H](CCc4ccc(Cl)c(Cl)c4)C(=O)N2C1)N1CC/C=C\C[C@@H](C1=O)N(C)C(=O)CN(C)C(=O)[C@H]([C@@H](C)CC)NC3=O` [PP3052]: the Kd in experiment [1] (SPR, Single Cycle Kinetics) is 0.26 nM. In addition, the “NRAS/KRAS (ratio of KD value for NRAS to KD value for KRAS)” value in experiment [2] is “AA (a compound having 20 or more is denoted as AA)”. Moreover, the “HRAS/KRAS (ratio of KD value for HRAS to KD value for KRAS)” value in experiment [3] is “A (a compound having 10 or more and less than 20 is denoted as A)”.

With `CCCN1C(=O)CN(C)C(=O)CN(C)C(=O)[C@H]([C@@H](C)CC)NC(=O)[C@H](CC(C)C)N(C)C(=O)C[C@@H](C(=O)N2CCOCC2)N(C)C(=O)[C@H](C2CCCC2)N(C)C(=O)C2(CCCC2)NC(=O)[C@@H]2COCCN2C(=O)[C@H](CCc2ccc(C(F)(F)F)c(Cl)c2)NC(=O)CN(C)C(=O)[C@@H]1Cc1ccc(C(F)(F)F)cc1` [PP0265] ([NMeL]I[Sar][Sar][NPrPhe(4-CF3)][Sar][hPhe(3-Cl-4-CF3)][Morpholine(3S-CO)][Ac5c][NMeGly(cPent)][NMeD]-Morpholide; lactam N-11), the Kd in experiment [1] (setting [4]) was found to be 0.28 nM. The “NRAS/KRAS (ratio of KD value for NRAS to KD value for KRAS)” value in experiment [2] was “B (a compound having 3 or more and less than 10 is denoted as B)”. Further, the “HRAS/KRAS (ratio of KD value for HRAS to KD value for KRAS)” value in experiment [3] was “C (A compound having a KD ratio of 0.1 or more and less than 3 is denoted as C)”.

With `CCCN1C(=O)[C@@H]2CCN2C(=O)CN(C)C(=O)[C@H]([C@@H](C)CC)NC(=O)[C@H](CC(C)C)N(C)C(=O)C[C@@H](C(=O)N2CCOCC2)N(C)C(=O)[C@H](C2CCCC2)N(C)C(=O)[C@](C)(C(C)C)NC(=O)[C@@H]2CCCN2C(=O)[C@H](CCc2cc(F)c(C(F)(F)F)c(F)c2)NC(=O)CN(C)C(=O)[C@@H]1Cc1ccc(C(F)(F)F)cc1` [PP0792] ([NMeL]I[Sar][Aze][NPrPhe(4-CF3)][Sar][hPhe(3,5-F2-4-CF3)]P[αMeV][NMeGly(cPent)][NMeD]-Morpholide; lactam N-11), the Kd in experiment [1] (setting [4]) amounted to 0.9 nM. In addition, the “NRAS/KRAS (ratio of KD value with respect to NRAS to KD value with respect to KRAS)” value in experiment [2] is “C (A compound having a KD ratio of 0.1 or more and less than 3 is denoted as C)”. For the same molecule, the “HRAS/KRAS (ratio of KD value with respect to HRAS to KD value with respect to KRAS)” value in experiment [3] was “B (a compound having 3 or more and less than 10 is denoted as B)”.

For `CCO[C@@H]1C[C@H]2C(=O)NC3(CCC3)C(=O)N(C)[C@@H](C3CCCC3)C(=O)N(C)[C@H](C(=O)N(C)C)CC(=O)N(C)[C@@H](CC3CCCCC3)C(=O)N[C@@H]([C@@H](C)CC)C(=O)N(C)CC(=O)N(C)[C@H]3C/C=C\CCN(C3=O)[C@@H](Cc3ccc(C(F)(F)F)cc3)C(=O)N(C)CC(=O)N[C@@H](CCc3cc(F)c(C(F)(F)F)c(F)c3)C(=O)N2C1` [PP1125, (2S,8S,12R,14S,20S,23S,27S,30S,36S,38Z)-27-(cyclohexylmethyl)-20-cyclopentyl-8-[2-[3,5-difluoro-4-(trifluoromethyl)phenyl]ethyl]-12-ethoxy-N,N,4,19,22,26,32,35-octamethyl-30-[(1S)-1-methylpropyl]-3,6,9,15,18,21,25,28,31,34,42-undecaoxo-2-[[4-(trifluoromethyl)phenyl]methyl]spiro[1,4,7,10,16,19,22,26,29,32,35-undecazatricyclo[34.5.1.0^10,14]dotetracont-38-ene-17,1′-cyclobutane]-23-carboxamide], the Kd in experiment [1] (SPR, Single Cycle Kinetics) came out at 0.07 nM. The “NRAS/KRAS (ratio of KD value for NRAS to KD value for KRAS)” value in experiment [2] was “A (a compound having 10 or more and less than 20 is denoted as A)”. In addition, the “HRAS/KRAS (ratio of KD value for HRAS to KD value for KRAS)” value in experiment [3] is “A (a compound having 10 or more and less than 20 is denoted as A)”.
